From ChEMBL document CHEMBL1147888, “Convenient one pot synthesis and antimicrobial evaluation of some new Mannich bases carrying 4-methylthiobenzyl moiety” (2007)
≈ marks a conversion by molar mass, not a printed value.

Key:
Assay type in all cases: functional
[1] = tested on: Aspergillus flavus; assay: Antifungal activity against Aspergillus flavus NICM524 at 10 ug/ml after 3 to 4 days by serial dilution method; details: read-out: IZ
[2] = tested on: Candida albicans; assay: Antifungal activity against Candida albicans NICM3100 after 3 to 4 days by serial dilution method
[3] = tested on: Aspergillus flavus; assay: Antifungal activity against Aspergillus flavus NICM524 after 3 to 4 days by serial dilution method
[4] = tested on: Talaromyces marneffei; assay: Antifungal activity against Penicillium marneffei at 10 ug/ml after 3 to 4 days by serial dilution method; details: read-out: IZ
[5] = tested on: Aspergillus fumigatus; assay: Antifungal activity against Aspergillus fumigatus NICM902 after 3 to 4 days by serial dilution method
[6] = tested on: Aspergillus fumigatus; assay: Antifungal activity against Aspergillus fumigatus NICM902 at 10 ug/ml after 3 to 4 days by serial dilution method; details: read-out: IZ
[7] = tested on: Candida albicans; assay: Antifungal activity against Candida albicans NICM3100 at 10 ug/ml after 3 to 4 days by serial dilution method; details: read-out: IZ
[8] = tested on: Talaromyces marneffei; assay: Antifungal activity against Penicillium marneffei after 3 to 4 days by serial dilution method
[9] = tested on: Pseudomonas aeruginosa; assay: Antibacterial activity against Pseudomonas aeruginosa ATCC 27853 at 10 ug/ml after 24 hrs by disc diffusion method; details: ATCC 27853, 24 h, read-out: IZ
[10] = tested on: Klebsiella pneumoniae; assay: Antibacterial activity against Klebsiella pneumoniae after 24 hrs at 10 ug/ml by disc diffusion method; details: read-out: IZ
[11] = tested on: Escherichia coli; assay: Antibacterial activity against Escherichia coli ATCC 25922 after 24 hrs at 10 ug/ml by disc diffusion method; details: ATCC 25922, 24 h, read-out: IZ
[12] = tested on: Escherichia coli; assay: Antibacterial activity against Escherichia coli ATCC 25922 after 24 hrs by disc diffusion method; details: ATCC 25922, 24 h
[13] = tested on: Klebsiella pneumoniae; assay: Antibacterial activity against Klebsiella pneumoniae after 24 hrs by disc diffusion method
[14] = tested on: Staphylococcus aureus; assay: Antibacterial activity against Staphylococcus aureus ATCC 25923 after 24 hrs by disc diffusion method; details: ATCC 25923, 24 h
[15] = tested on: Staphylococcus aureus; assay: Antibacterial activity against Staphylococcus aureus ATCC 25923 at 10 ug/ml after 24 hrs by disc diffusion method; details: ATCC 25923, 24 h, read-out: IZ
[16] = tested on: Pseudomonas aeruginosa; assay: Antibacterial activity against Pseudomonas aeruginosa ATCC 27853 after 24 hrs by disc diffusion method; details: ATCC 27853, 24 h

MIC [2]	MIC [3]	MIC [5]	MIC [8]	MIC [12]	MIC [13]	MIC [14]	MIC [16]	SMILES	zone of inhibition at 10 µg/mL [1]	zone of inhibition at 10 µg/mL [4]	zone of inhibition at 10 µg/mL [6]	zone of inhibition at 10 µg/mL [7]	zone of inhibition at 10 µg/mL [9]	zone of inhibition at 10 µg/mL [10]	zone of inhibition at 10 µg/mL [11]	zone of inhibition at 10 µg/mL [15]
6 µg/mL	12.5 µg/mL	6 µg/mL	6 µg/mL	–	–	–	–	Cc1cc(C2CCCCC2)n(O)c(=O)c1.NCCO [CICLOPIROX OLAMINE]	18 mm	20 mm	22 mm	20 mm	–	–	–	–
12.5 µg/mL (≈ 26.8 µM)	25 µg/mL (≈ 53.6 µM)	12.5 µg/mL (≈ 26.8 µM)	12.5 µg/mL (≈ 26.8 µM)	25 µg/mL (≈ 53.6 µM)	12.5 µg/mL (≈ 26.8 µM)	25 µg/mL (≈ 53.6 µM)	12.5 µg/mL (≈ 26.8 µM)	CSc1ccc(Cc2nn(CN3CCN(C)CC3)c(=S)n2/N=C/c2ccc(C)cc2)cc1	12 mm	11 mm	10 mm	12 mm	12 mm	10 mm	12 mm	10 mm
6 µg/mL (≈ 12.3 µM)	12.5 µg/mL (≈ 25.7 µM)	6 µg/mL (≈ 12.3 µM)	6 µg/mL (≈ 12.3 µM)	12.5 µg/mL (≈ 25.7 µM)	6 µg/mL (≈ 12.3 µM)	12.5 µg/mL (≈ 25.7 µM)	6 µg/mL (≈ 12.3 µM)	CSc1ccc(Cc2nn(CN3CCN(C)CC3)c(=S)n2/N=C/c2ccc(Cl)cc2)cc1	18 mm	20 mm	20 mm	19 mm	24 mm	20 mm	18 mm	18 mm
12.5 µg/mL (≈ 25.9 µM)	25 µg/mL (≈ 51.8 µM)	12.5 µg/mL (≈ 25.9 µM)	12.5 µg/mL (≈ 25.9 µM)	25 µg/mL (≈ 51.8 µM)	12.5 µg/mL (≈ 25.9 µM)	25 µg/mL (≈ 51.8 µM)	12.5 µg/mL (≈ 25.9 µM)	COc1ccc(/C=N/n2c(Cc3ccc(SC)cc3)nn(CN3CCN(C)CC3)c2=S)cc1	12 mm	10 mm	12 mm	10 mm	10 mm	10 mm	10 mm	10 mm
12.5 µg/mL (≈ 26.6 µM)	25 µg/mL (≈ 53.1 µM)	12.5 µg/mL (≈ 26.6 µM)	12.5 µg/mL (≈ 26.6 µM)	25 µg/mL (≈ 53.1 µM)	12.5 µg/mL (≈ 26.6 µM)	25 µg/mL (≈ 53.1 µM)	12.5 µg/mL (≈ 26.6 µM)	CSc1ccc(Cc2nn(CN3CCN(C)CC3)c(=S)n2/N=C/c2ccc(F)cc2)cc1	10 mm	10 mm	12 mm	10 mm	10 mm	10 mm	12 mm	12 mm
12.5 µg/mL (≈ 26.4 µM)	25 µg/mL (≈ 52.7 µM)	12.5 µg/mL (≈ 26.4 µM)	12.5 µg/mL (≈ 26.4 µM)	25 µg/mL (≈ 52.7 µM)	12.5 µg/mL (≈ 26.4 µM)	25 µg/mL (≈ 52.7 µM)	12.5 µg/mL (≈ 26.4 µM)	CSc1ccc(Cc2nn(CN3CCOCC3)c(=S)n2/N=C/c2ccc(Cl)cc2)cc1	10 mm	10 mm	10 mm	10 mm	12 mm	10 mm	10 mm	10 mm
12.5 µg/mL (≈ 27.3 µM)	25 µg/mL (≈ 54.6 µM)	12.5 µg/mL (≈ 27.3 µM)	12.5 µg/mL (≈ 27.3 µM)	25 µg/mL (≈ 54.6 µM)	12.5 µg/mL (≈ 27.3 µM)	25 µg/mL (≈ 54.6 µM)	12.5 µg/mL (≈ 27.3 µM)	CSc1ccc(Cc2nn(CN3CCOCC3)c(=S)n2/N=C/c2ccc(F)cc2)cc1	10 mm	12 mm	10 mm	10 mm	12 mm	12 mm	12 mm	12 mm
12.5 µg/mL (≈ 25.8 µM)	25 µg/mL (≈ 51.7 µM)	12.5 µg/mL (≈ 25.8 µM)	12.5 µg/mL (≈ 25.8 µM)	25 µg/mL (≈ 51.7 µM)	12.5 µg/mL (≈ 25.8 µM)	25 µg/mL (≈ 51.7 µM)	12.5 µg/mL (≈ 25.8 µM)	CSc1ccc(Cc2nn(CN3CCOCC3)c(=S)n2/N=C/c2ccc3c(c2)OCO3)cc1	10 mm	10 mm	12 mm	10 mm	12 mm	10 mm	10 mm	10 mm
